This is an account of results in patent US11207419B2, “Cadherin-17 specific antibodies and cytotoxic cells for cancer treatment” (ARBELE LIMITED, priority 2016, dated 2021).

The test system of test [1] is luciferase-labelled 97L orthotopic liver tumors. Put plainly: Orthotopic tumor xenograft model, tumor growth by live imaging. The note with it: net photon count relative to IgG control 3 weeks after treatment; 6 mg/kg Lic5, 1 mg/kg drug, intraperitoneal 3 times/week for 3 weeks. It is filed as in vivo, nude mice.
Test [2] has as its system 97L orthotopic liver tumors. As to the kind of experiment: Animal survival study, orthotopic liver tumors. The note with it: for animal survival rate: 8 mg/kg Lic5, 1 mg/kg epirubicin, intraperitoneal 3 times/week for 3 weeks, monitored till 6 weeks after treatment. In kind it is in vivo, nude mice. The procedure: Orthotopic liver tumors were established as above using 97L cells. Orthotopic tumor-bearing mice received the following treatments intraperitoneally 3 times/week for 3 weeks (11-15 mice in each group): (1) 8 mg/kg Lic5; (2) 1 mg/kg cisplatin; (3) 1 mg/kg epirubicin; (4) combined treatment of Lic5 and cisplatin; (5) combined treatment of Lic5 and epirubicin; (6) 8 mg/kg mouse IgG as Lic5 control. Animal survival was continuously monitored till 6 weeks after treatment.
Statistical analyses were performed using SPSS version 19 (SPSS Inc., Chicago, Ill., USA). Data presented in bar chart are expressed as mean ±SD/SEM. Student's t-test was used to calculate the significance of the difference between treatment groups and control group in both cell proliferation MTT assay and animal tumor xenograft experiments. Kaplan-Meier method was employed for survival analyses, while the differences in survival were calculated using log-rank test. A p-value of less than 0.05 was considered statistically significant.

Test [3] relates to MHCC97-L (97L) cells. As to the kind of experiment: In vitro cell proliferation MTT assay, 97L cells. It is filed as cell-based, human. The note with it: cultured 97L cells; for growth inhibition: treatment for 2 days, MTT. The procedure:
(§1) A pre-determined number of 97L and PLC cells was seeded onto 96-well culture plates for 1 day. 150 ug/ml mouse IgG (Sigma-Aldrich, St Louis, Mo., USA) as a control for Lic5. After treatment, the proliferation of treated cells was measured using Cell Proliferation Kit I (Roche, Indianapolis, Ind., USA) and as described. In brief, MTT reagent was incubated with the treated cells for 4 hours. Colorimetric signals were then measured after addition of 10% SDS. Independent cell proliferation MTT assays were performed at least twice for result confirmation.
(§2) Before treating orthotopic tumor-bearing mice with the purified Lic5, the anti-tumor effect of Lic5 alone or combined with cisplatin or epirubicin in cultured HCC cell lines in vitro was examined using cell proliferation MTT assay (FIG. 31(A)).
(In general: Formazan colour is commonly taken as a measure of viable cells.)

The subject of test [4] is PLC/PRF/5 (PLC) cells. As to the kind of experiment: In vitro cell proliferation MTT assay, PLC cells. It is filed as cell-based, human. The note with it: for growth inhibition: cultured PLC cells, treatment for 2 days, MTT. The protocol: as §1, §2
The target in test [5] is T1, GPC3 (Homo sapiens, UniProt P51654).
T1 construct: host or cells: HCC patients
The note with it: phase I study; cited from earlier work.

Test [6] deals with Oum1 human gastric cancer cells. As to the kind of experiment: Internalization by confocal microscopy. It is filed as cell-based. The note with it: Lic5-FITC, over 30 mins at 37° C. The procedure: FIG. 18 presents photographs showing the internalization of Lic5 into human gastric cancer cells as candidate for antibody drug conjugate; (a) photographs showing the staining of DAPI (blue) and Lic5-FITC (green) at indicated times; (b) photographs showing the merged staining of DAPI (blue) and Lic5-FITC (green) at indicated times; Lic5-FITC (green) internalization in Oum1 human gastric cancer cells over 30 mins at 37° C. was determined by confocal microscopy; nucleus was stained with DAPI.
In another aspect, the internalization of Lic5 into human gastric cancer cells is indicative of a candidate for antibody drug conjugate as shown in FIG. 18; (a) photographs showing the staining of DAPI (blue) and Lic5-FITC (green) at indicated times; (b) photographs showing the merged staining of DAPI (blue) and Lic5-FITC (green) at indicated times; Lic5-FITC (green) internalization in Oum1 human gastric cancer cells over 30 mins at 37° C. was determined by confocal microscopy; nucleus was stained with DAPI.

In test [7] the test system is tumor cells of HCC and GC. Put plainly: Binding of mAbs to tumor cells. In kind it is cell-based. The text has this:
Tumor antigens derived from clinical samples were selected for the antibodies with specificity directed against the tumor-restricted CDH17 epitopes. […] By lowering and/or varying the antibody affinity (through computational modeling), CDH17-CAR-T cells will have enhanced differential binding to the tumor cell surface.

Test [8] addresses T2, CDH17 (Homo sapiens, UniProt Q12864).
T2 construct: A single band of about 120 kDa corresponding to the apparent molecular weight of CDH17 was detected in CDH17-expressing 97L cells; endogenous in cells; host or cells: 97L cell lysate (western blot); paraffin-embedded human HCC tissue (immunohistochemistry)
As to the kind of experiment: Immunoreactivity by western blot and immunohistochemistry. The note with it: western blot on 97L cell lysate, immunohistochemistry on human HCC tissue. It is filed as binding. The procedure:
An in-house hybridoma cell line secreting Lic5 was generated as described. Hybridoma cells were maintained in DMEM supplemented with 10% FBS and 100 units/ml penicillin and streptomycin. To collect Lic5, hybridoma cells were cultured in serum-free hybridoma-SFM (Life Technologies) for 6 days. The cultured supernatant was collected and purified using Protein G column (Life Technologies). The concentration of the purified Lic5 was estimated using RC DC Protein Assay (Bio-Rad, Hercules, Calif., USA). The purity of Lic5 was assessed by sodium dodecyl sulfate-polyacrylamide gel electrophoresis (SDS-PAGE) under reducing condition, followed by Coomassie Blue staining. Immunoreactivity and specificity of Lic5 were confirmed by western blot using 97L cell lysate and by immunohistochemistry using paraffin-embedded human HCC tissue. […]
Immunohistochemistry was performed on paraffin-embedded orthotopic tumor xenografts and human HCC specimen as described. […] Signals were detected using EnVision+System-HRP Labelled Polymer Anti-mouse (Dako, Carpinteria, Calif., USA) and visualized using Liquid DAB+Substrate Chromogen System (Dako). […]
A single band of about 120 kDa corresponding to the apparent molecular weight of CDH17 was detected in CDH17-expressing 97L cells when Lic5 was used as a primary antibody for western blot (FIG. 30(B)). […]
(In general: Immunoblotting shows a protein as a band on a membrane.)

The mark [9] stands for this setting: 2 days, compared to mouse IgG-treated cells.

In test [1], `N.N.[Cl][Pt][Cl]` [cisplatin] registered a xenograft growth inhibition of 48.6%. Besides, in test [2] (log-rank test versus mouse IgG control), the “difference in survival compared to control group” value was “did not reach any statistically significant values”. In addition, the values for the growth inhibition in test [3] and in test [4] were 31.6% and 37.6%, respectively.

On to GC33: anti-GPC3 mAb developed by Chugai, for which, in test [5], the clinical response result is listed as “no partial or complete response”.

In test [1], `COc1cccc2c1C(=O)c1c(O)c3c(c(O)c1C2=O)C[C@@](O)(C(=O)CO)C[C@@H]3O[C@H]1C[C@H](N)[C@@H](O)[C@H](C)O1` [epirubicin] gave a xenograft growth inhibition of 37.9%. The same molecule gave an animal survival rate in test [2] of 25%. In addition, the growth inhibition was determined as 21.9% in test [3] and 8.1% in test [4].

B1: Lic5: in-house mouse monoclonal antibody against CDH17, from hybridoma; VL SEQ ID NO. 29, VH SEQ ID NO. 30 (antibody, V domains shown)
VH: EVQLEESGGGLVKPGGSLKLPCAASGSSFSDFYMYWVRQTPEKRLEWVASISFDGTYTYYTDRVKGRFTISRDNAKNNLYLQMSSLKSEDTAMYYCARDRPAWFPYWGQGTLVTVSAA
VL: DIVLTQTTLSLNVSLGDQASISCRSSQSIVHSNGNTYLEWYLQRPGQSPKLLIYKVSNRFSGVPDRFSGSGSGTDFTLKISRVEAEDLGVYYCFQGSHVPLTFGAGTKLELKRA
notes: in-house mouse monoclonal antibody against CDH17, from hybridoma; 30
Regarding B1, in test [6], the internalization into cells result was “internalization”. In test [2], this molecule gave an animal survival rate of 63.6%. In addition, the “growth of cultured cells, single treatment” value in test [3] (setting [9]) and in test [4] (setting [9]) was “inhibited the growth” throughout. In test [7], the “binding to tumor cells” value is “bind tumor cells of HCC and GC only”. Also, the “immunoreactivity against CDH17” value in test [8] is “high immunoreactivity against CDH17”.

B2: Lic3: mouse monoclonal antibody against CDH17, produced using recombinant ectodomain 1-2 of CDH17 as immunogen (antibody, V domains shown)
VH: EVQLVESGGGLVKPGGSLKLSCAASGFSFSDYYMYWVRQAPEKRLEWVASISFDGTYTYYTDRVKGRFTISRDNAKNNLYLQMSSLKSEDTAMYYCARDRPAWFPYWGQGTLVTVSA
VL: DVLMTQIPLSLTVSLGDQASISCRSSQSIVHSNGNTYLEWYLQRPGQSPKLLIYKVSNRFSGVPDRFSGSGSGTDFTLKISRVEAEDLGVYYCFQGSHVPLTFGAGTKLELK
modifications: Lic3 VH; Lic3 VL
notes: mouse monoclonal antibody against CDH17, produced using recombinant ectodomain 1-2 of CDH17 as immunogen
Take B2: the “binding to tumor cells” value in test [7] was “bind tumor cells of HCC and GC only”.
